How the values were obtained:
männlichen Ratten = assay: Feeding trial in male rats (growth, feed intake, feed conversion); assay type: in vivo; settings: for Futterverwertung (g Futter/g Gewichtszunahme) relativ zur Kontrollgruppe in % / mittlere Futterverwertung relativ zur Kontrollgruppe in %: lower number = better feed conversion; for mittlere Futterverwertung relativ zur Kontrollgruppe in %: mean over 5-40 ppm Forskolin; for Futteraufnahme (g/d) / Futteraufnahme relativ zur Kontrolle / Gewicht (g) am Ende / Gewichtszunahme relativ zur Kontrolle (%): 28 d
Text: In einem Fütterungsversuch mit 60 männlichen Ratten im Gewichtsabschnitt von 40 bis 170 g Lebendmasse wurde die Wirkung von 5, 10, 20 und 40 ppm Forskolin im Futter bei zwei verschiedenen Proteingehalten der Diäten (15 und 20 Gew.-% für eine suboptimale bzw. optimale Versorgung) auf das Wachstum, die Futteraufnahme und die Futterverwertung im Vergleich zum Futter ohne Gehalt an Forskolin untersucht. Die Diäten (Zusammensetzung siehe Tabelle 1) waren mit 16,6 und 16,8 kJ/g Trockensubstanz isokalorisch. Jeweils sechs Tiere wurden mit Futter gleichen Gehalts an Forskolin und Protein gefüttert und die Resultate für die Auswertung ermittelt. Die jeweiligen sechs Tiere wurden zu je zweien in Makrolonkäfigen in einer Klimakammer bei konstant 25°C und 65 % relativer Luftfeuchte 28 Tage lang gehalten.

[1] = system: Männliche Lohmann-Masthähnchen; assay: Feeding trial in broilers (growth, feed intake, feed conversion); assay type: in vivo, Broilern; settings: for Futteraufnahme (g/d) / Futteraufnahme, prozentualer Wert relativ zur Kontrollgruppe / Gewicht (Masse) am Ende, prozentualer Wert relativ zur Kontrollgruppe / Massezunahme, prozentualer Wert relativ zur Kontrollgruppe / Futterverwertung, prozentualer Wert relativ zur Kontrollgruppe / Gewicht (Masse) (g) am Ende / Massezunahme (g/d) / Futterverwertung g Futter/g Zunahme: 22 wt% protein; for Futterverwertung, prozentualer Wert relativ zur Kontrollgruppe / Futterverwertung g Futter/g Zunahme: lower = better; for Gewicht (Masse) (g) am Ende / Massezunahme (g/d) / Futterverwertung g Futter/g Zunahme: mean ± spread
Experimental: Männliche Lohmann-Masthähnchen mit einer Lebendmasse zwischen 35 und 45 g wurden in Gruppen von jeweils 20 Tieren pro Behandlung (100 cm²/Tier) auf einer Einstreu aus Hobelspänen bei 24-stündiger Beleuchtung und einer Temperatur von 36 ± 1°C bis zum 21. Versuchstag und 26 ± 1°C vom 22. bis zum 35. Versuchstag gehalten. Das Futter wurde ad libitum angeboten. Die Zusammensetzung des Futters (ohne Wirkstoff) ist in Tabelle 5 angegeben. Der Proteingehalt betrug 22 Gew.-% (entsprechend dem Bedarf). Forskolin wurde als Wurzelmehl über eine Glucose-Vormischung in die Ration eingebracht. Tabelle 5

[2] = 15 wt% crude protein diet, 5 ppm Forskolin in feed
[3] = 15 wt% crude protein diet, 10 ppm Forskolin in feed
[4] = 15 wt% crude protein diet, 20 ppm Forskolin in feed
[5] = 15 wt% crude protein diet, 40 ppm Forskolin in feed
[6] = 20 wt% crude protein diet, 5 ppm Forskolin in feed
[7] = 20 wt% crude protein diet, 10 ppm Forskolin in feed
[8] = 20 wt% crude protein diet, 20 ppm Forskolin in feed
[9] = 20 wt% crude protein diet, 40 ppm Forskolin in feed
[10] = 2 ppm Forskolin in feed (as root meal)
[11] = 4 ppm Forskolin in feed (as root meal)
[12] = 8 ppm Forskolin in feed (as root meal)
[13] = 16 ppm Forskolin in feed (as root meal)
[14] = 32 ppm Forskolin in feed (as root meal)
[15] = broilers, 'up to', 2-32 ppm Forskolin in feed

C=C[C@@]1(C)CC(=O)[C@]2(O)[C@@]3(C)[C@@H](O)CCC(C)(C)[C@@H]3[C@H](O)[C@H](OC(C)=O)[C@@]2(C)O1 [Forskolin]
Zuwachs (männlichen Ratten; 15 % protein, 5 ppm Forskolin): ca. 91 g
Futterverwertung (g Futter/g Gewichtszunahme) relativ zur Kontrollgruppe in % (männlichen Ratten; 15 % protein, 5 ppm Forskolin): 107,7%
Zuwachs (männlichen Ratten; 15 % protein, 10 ppm Forskolin): ~115 g
Futterverwertung (g Futter/g Gewichtszunahme) relativ zur Kontrollgruppe in % (männlichen Ratten; 15 % protein, 10 ppm Forskolin): 100,8%
Zuwachs (männlichen Ratten; 15 % protein, 20 ppm Forskolin): ~122 g
Futterverwertung (g Futter/g Gewichtszunahme) relativ zur Kontrollgruppe in % (männlichen Ratten; 15 % protein, 20 ppm Forskolin): 97,3%
Futterverwertung (g Futter/g Gewichtszunahme) relativ zur Kontrollgruppe in % (männlichen Ratten; 15 % protein, 40 ppm Forskolin): 109,3%
mittlere Futterverwertung relativ zur Kontrollgruppe in % (männlichen Ratten; 15 % protein): 103,7%
gesteigerte Zunahme an Lebendmasse im Vergleich zur entsprechenden Kontrollgruppe (männlichen Ratten; 15 and 20 wt% protein, up to 20 ppm Forskolin, within 28 days, 'up to'): ≤ 39%
Gewichtszunahme (g/28 d) (männlichen Ratten; [2]): 90,9 g/28 d
Futteraufnahme (g/d) (männlichen Ratten; [2]): 9,07 g/d
Futteraufnahme relativ zur Kontrolle (männlichen Ratten; [2]): 111,9
Gewicht (g) am Ende (männlichen Ratten; [2]): 131,3 g
Gewichtszunahme relativ zur Kontrolle (%) (männlichen Ratten; [2]): 103,6%
Gewichtszunahme (g/28 d) (männlichen Ratten; [3]): 115,1 g/28 d
Futteraufnahme (g/d) (männlichen Ratten; [3]): 10,70 g/d
Futteraufnahme relativ zur Kontrolle (männlichen Ratten; [3]): 132,2
Gewicht (g) am Ende (männlichen Ratten; [3]): 156,0 g
Gewichtszunahme relativ zur Kontrolle (%) (männlichen Ratten; [3]): 131,2%
Gewichtszunahme (g/28 d) (männlichen Ratten; [4]): 122,0 g/28 d
Futteraufnahme (g/d) (männlichen Ratten; [4]): 11,00 g/d
Futteraufnahme relativ zur Kontrolle (männlichen Ratten; [4]): 135,7
Gewicht (g) am Ende (männlichen Ratten; [4]): 162,6 g
Gewichtszunahme relativ zur Kontrolle (%) (männlichen Ratten; [4]): 139,1%
Gewichtszunahme (g/28 d) (männlichen Ratten; [5]): 81,8 g/28 d
Futteraufnahme (g/d) (männlichen Ratten; [5]): 8,26 g/d
Futteraufnahme relativ zur Kontrolle (männlichen Ratten; [5]): 101,8
Gewicht (g) am Ende (männlichen Ratten; [5]): 122,3 g
Gewichtszunahme relativ zur Kontrolle (%) (männlichen Ratten; [5]): 93,3%
Futterverwertung erhöht (männlichen Ratten; 20 % protein content, 'up to about', refers to mean feed conversion of Table 4): ≤ 8%
Futterverwertung (g Futter/g Gewichtszunahme) relativ zur Kontrollgruppe in % (männlichen Ratten; 20 % protein, 5 ppm Forskolin): 92,4%
Zuwachs (männlichen Ratten; 20 % protein, 10 ppm Forskolin): ~113 g
Futterverwertung (g Futter/g Gewichtszunahme) relativ zur Kontrollgruppe in % (männlichen Ratten; 20 % protein, 10 ppm Forskolin): 93,8%
Zuwachs (männlichen Ratten; 20 % protein, 20 ppm Forskolin): ~121 g
Futterverwertung (g Futter/g Gewichtszunahme) relativ zur Kontrollgruppe in % (männlichen Ratten; 20 % protein, 20 ppm Forskolin): 90,5%
Futterverwertung (g Futter/g Gewichtszunahme) relativ zur Kontrollgruppe in % (männlichen Ratten; 20 % protein, 40 ppm Forskolin): 92,0%
mittlere Futterverwertung relativ zur Kontrollgruppe in % (männlichen Ratten; 20 % protein): 92,2%
Gewichtszunahme (g/28 d) (männlichen Ratten; [6]): 117,6 g/28 d
Futteraufnahme (g/d) (männlichen Ratten; [6]): 10,70 g/d
Futteraufnahme relativ zur Kontrolle (männlichen Ratten; [6]): 115,7
Gewicht (g) am Ende (männlichen Ratten; [6]): 157,7 g
Gewichtszunahme relativ zur Kontrolle (%) (männlichen Ratten; [6]): 124,4%
Gewichtszunahme (g/28 d) (männlichen Ratten; [7]): 112,9 g/28 d
Futteraufnahme (g/d) (männlichen Ratten; [7]): 10,40 g/d
Futteraufnahme relativ zur Kontrolle (männlichen Ratten; [7]): 112,4
Gewicht (g) am Ende (männlichen Ratten; [7]): 153,2 g
Gewichtszunahme relativ zur Kontrolle (%) (männlichen Ratten; [7]): 119,9%
Gewichtszunahme (g/28 d) (männlichen Ratten; [8]): 120,5 g/28 d
Futteraufnahme (g/d) (männlichen Ratten; [8]): 10,70 g/d
Futteraufnahme relativ zur Kontrolle (männlichen Ratten; [8]): 115,7
Gewicht (g) am Ende (männlichen Ratten; [8]): 161,9 g
Gewichtszunahme relativ zur Kontrolle (%) (männlichen Ratten; [8]): 127,9%
Gewichtszunahme (g/28 d) (männlichen Ratten; [9]): 103,1 g/28 d
Futteraufnahme (g/d) (männlichen Ratten; [9]): 9,31 g/d
Futteraufnahme relativ zur Kontrolle (männlichen Ratten; [9]): 100,6
Gewicht (g) am Ende (männlichen Ratten; [9]): 143,0 g
Gewichtszunahme relativ zur Kontrolle (%) (männlichen Ratten; [9]): 109,4%
Futteraufnahme (g/d) [1, 10]: 88,4 g/d
Futteraufnahme, prozentualer Wert relativ zur Kontrollgruppe [1, 10]: 104,0%
Gewicht (Masse) am Ende, prozentualer Wert relativ zur Kontrollgruppe [1, 10]: 108,5%
Massezunahme, prozentualer Wert relativ zur Kontrollgruppe [1, 10]: 109,0%
Futterverwertung, prozentualer Wert relativ zur Kontrollgruppe [1, 10]: 94,6%
Gewicht (Masse) (g) am Ende [1, 10]: 1715,2±196,2 g
Massezunahme (g/d) [1, 10]: 45,4±5,4 g/d
Futterverwertung g Futter/g Zunahme [1, 10]: 1,97±0,24 g Futter/g Zunahme
Futteraufnahme (g/d) [1, 11]: 86,2 g/d
Futteraufnahme, prozentualer Wert relativ zur Kontrollgruppe [1, 11]: 101,6%
Gewicht (Masse) am Ende, prozentualer Wert relativ zur Kontrollgruppe [1, 11]: 106,4%
Massezunahme, prozentualer Wert relativ zur Kontrollgruppe [1, 11]: 106,0%
Futterverwertung, prozentualer Wert relativ zur Kontrollgruppe [1, 11]: 95,7%
Gewicht (Masse) (g) am Ende [1, 11]: 1682,5±253,7 g
Massezunahme (g/d) [1, 11]: 44,4±6,9 g/d
Futterverwertung g Futter/g Zunahme [1, 11]: 1,99±0,38 g Futter/g Zunahme
Futteraufnahme (g/d) [1, 12]: 83,8 g/d
Futteraufnahme, prozentualer Wert relativ zur Kontrollgruppe [1, 12]: 98,7%
Gewicht (Masse) am Ende, prozentualer Wert relativ zur Kontrollgruppe [1, 12]: 103,9%
Massezunahme, prozentualer Wert relativ zur Kontrollgruppe [1, 12]: 104,3%
Futterverwertung, prozentualer Wert relativ zur Kontrollgruppe [1, 12]: 93,8%
Gewicht (Masse) (g) am Ende [1, 12]: 1643,0±192,3 g
Massezunahme (g/d) [1, 12]: 43,5±5,3 g/d
Futterverwertung g Futter/g Zunahme [1, 12]: 1,95±0,24 g Futter/g Zunahme
Futteraufnahme (g/d) [1, 13]: 86,7 g/d
Futteraufnahme, prozentualer Wert relativ zur Kontrollgruppe [1, 13]: 102,0%
Gewicht (Masse) am Ende, prozentualer Wert relativ zur Kontrollgruppe [1, 13]: 103,1%
Massezunahme, prozentualer Wert relativ zur Kontrollgruppe [1, 13]: 103,4%
Futterverwertung, prozentualer Wert relativ zur Kontrollgruppe [1, 13]: 97,9%
Gewicht (Masse) (g) am Ende [1, 13]: 1629,5±242,4 g
Massezunahme (g/d) [1, 13]: 43,1±6,6 g/d
Futterverwertung g Futter/g Zunahme [1, 13]: 2,04±0,33 g Futter/g Zunahme
Futteraufnahme (g/d) [1, 14]: 86,4 g/d
Futteraufnahme, prozentualer Wert relativ zur Kontrollgruppe [1, 14]: 101,8%
Gewicht (Masse) am Ende, prozentualer Wert relativ zur Kontrollgruppe [1, 14]: 103,9%
Massezunahme, prozentualer Wert relativ zur Kontrollgruppe [1, 14]: 103,9%
Futterverwertung, prozentualer Wert relativ zur Kontrollgruppe [1, 14]: 97,2%
Gewicht (Masse) (g) am Ende [1, 14]: 1642,7±182,9 g
Massezunahme (g/d) [1, 14]: 43,3±5,0 g/d
Futterverwertung g Futter/g Zunahme [1, 14]: 2,02±0,28 g Futter/g Zunahme
Futterverwertung verbessert [1, 15]: ≤ 7%
Lebendmassezunahme gegenüber der Kontrollgruppe verbessert [1, 15]: ≤ 9%

From EP0341527A2, “Agent for increasing animal growth” (HOECHST AKTIENGESELLSCHAFT, priority 1988, dated 1989)
